Results on 17 compounds are retold here after PubChem BioAssay AID256 (DTP/NCI, 2004).

Values joined by “and” are separate entries in the source; they are usually repeats but may differ in a detail not shown here. Identical values can stand only once. Inconclusive results and toxic doses are left out.

In this assay the test system is CD2F1 mice, L1210 leukemia ip, survival T/C. The assay can be described thus: NCI In Vivo Anticancer Drug Screen. Data for tumor model L1210 Leukemia (intraperitoneal) in CD2F1 (CDF1) mice. Conditions: higher = longer survival. The essentials: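 Compound-dosed mice with transplantable tumor versus matched vehicle controls; endpoint ratio T/C reported.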
[1] abbreviates: endpoint: mean survival time, dose: 12.5 mg/kg/injection, schedule: Q01DX009 (ip), vehicle: saline with Tween-80.
Setting [2] is: endpoint: mean survival time, dose: 25.0 mg/kg/injection, schedule: Q01DX009 (ip), vehicle: saline with Tween-80.
The mark [3] stands for this setting: endpoint: mean survival time, dose: 50.0 mg/kg/injection, schedule: Q01DX009 (ip), vehicle: saline with Tween-80.
Setting [4] is: endpoint: mean survival time, dose: 50.0 mg/kg/injection, schedule: Q04DX003 (ip), vehicle: Klucel (hydroxypropylcellulose) (HPC).
The mark [5] stands for this setting: endpoint: mean survival time, dose: 100.0 mg/kg/injection, schedule: Q04DX003 (ip), vehicle: Klucel (hydroxypropylcellulose) (HPC).
Where [6] appears, read: endpoint: mean survival time, dose: 100.0 mg/kg/injection, schedule: Q04DX002 (ip), vehicle: saline with Tween-80.
The mark [7] stands for this setting: endpoint: mean survival time, dose: 200.0 mg/kg/injection, schedule: Q04DX002 (ip), vehicle: saline with Tween-80.
Where [8] appears, read: endpoint: mean survival time, dose: 400.0 mg/kg/injection, schedule: Q04DX002 (ip), vehicle: saline with Tween-80.

For the compound `CNCc1ccc([N+](=O)[O-])cc1`, the T/C reads like this: (endpoint: mean survival time, dose: 50.0 mg/kg/injection, schedule: Q01DX009 (ip), vehicle: saline) 104 % of control; (endpoint: mean survival time, dose: 100.0 mg/kg/injection, schedule: Q01DX009 (ip), vehicle: saline) 100 % of control; (endpoint: mean survival time, dose: 200.0 mg/kg/injection, schedule: Q01DX009 (ip), vehicle: saline) 93 % of control.
On to `CC(C)(CO)COS(=O)(=O)c1ccc(Br)cc1`, for which the T/C was 95 % of control under setting [1], 95 % of control under setting [2] and 95 % of control under setting [3].
As to `CS(=O)(=O)OCCNc1ccc([N+](=O)[O-])cc1`, the T/C by setting is: (endpoint: mean survival time, dose: 8.0 mg/kg/injection, schedule: Q01DX001 (ip), vehicle: saline) 100 % of control; (endpoint: mean survival time, dose: 10.0 mg/kg/injection, schedule: Q01DX010 (ip), vehicle: saline) 103 % of control; (endpoint: mean survival time, dose: 16.0 mg/kg/injection, schedule: Q01DX001 (ip), vehicle: saline) 95 % of control; (endpoint: mean survival time, dose: 30.0 mg/kg/injection, schedule: Q01DX010 (ip), vehicle: saline) 113 % of control; (endpoint: mean survival time, dose: 32.0 mg/kg/injection, schedule: Q01DX001 (ip), vehicle: saline) 98 % of control; (endpoint: mean survival time, dose: 64.0 mg/kg/injection, schedule: Q01DX001 (ip), vehicle: saline) 90 % of control and 100 % of control. The T/C runs as follows: (endpoint: mean survival time, dose: 100.0 mg/kg/injection, schedule: Q01DX010 (ip), vehicle: saline) 119 % of control; (endpoint: mean survival time, dose: 128.0 mg/kg/injection, schedule: Q01DX001 (ip), vehicle: saline) 96 % of control; (endpoint: mean survival time, dose: 256.0 mg/kg/injection, schedule: Q01DX001 (ip), vehicle: saline) 96 % of control; (endpoint: mean survival time, dose: 300.0 mg/kg/injection, schedule: Q01DX010 (ip), vehicle: saline) 97 % of control.
Regarding `CN(C)/N=C\c1ccc([N+](C)(C)C)cc1`, the T/C reads like this: (endpoint: mean survival time, dose: 12.5 mg/kg/injection, schedule: Q04DX003 (ip), vehicle: Klucel (hydroxypropylcellulose) (HPC)) 103 % of control; (endpoint: mean survival time, dose: 25.0 mg/kg/injection, schedule: Q04DX003 (ip), vehicle: Klucel (hydroxypropylcellulose) (HPC)) 109 % of control; under setting [4], 106 % of control.
Turning to `Cc1nn(CCO)c(C)c1N=[N+]([O-])c1c(C)nn(CCO)c1C`, the T/C runs as follows: (endpoint: mean survival time, dose: 3.12 mg/kg/injection, schedule: Q01DX009 (ip), vehicle: Klucel (hydroxypropylcellulose) (HPC)) 102 % of control; (endpoint: mean survival time, dose: 3.12 mg/kg/injection, schedule: Q01DX009 (ip), vehicle: saline with Tween-80) 98 % of control; (endpoint: mean survival time, dose: 6.25 mg/kg/injection, schedule: Q01DX009 (ip), vehicle: Klucel (hydroxypropylcellulose) (HPC)) 95 % of control; (endpoint: mean survival time, dose: 6.25 mg/kg/injection, schedule: Q01DX009 (ip), vehicle: saline with Tween-80) 103 % of control; (endpoint: mean survival time, dose: 12.5 mg/kg/injection, schedule: Q01DX009 (ip), vehicle: Klucel (hydroxypropylcellulose) (HPC)) 96 % of control; under setting [1], 104 % of control. Further, the T/C was 95 % of control (endpoint: mean survival time, dose: 25.0 mg/kg/injection, schedule: Q01DX009 (ip), vehicle: Klucel (hydroxypropylcellulose) (HPC)); 106 % of control under setting [2]; 101 % of control (endpoint: mean survival time, dose: 50.0 mg/kg/injection, schedule: Q01DX009 (ip), vehicle: Klucel (hydroxypropylcellulose) (HPC)); 103 % of control under setting [3]; 113 % of control under setting [4]; 95 % of control (endpoint: mean survival time, dose: 100.0 mg/kg/injection, schedule: Q01DX009 (ip), vehicle: Klucel (hydroxypropylcellulose) (HPC)). Also, the T/C under setting [5] is 117 % of control.
`CCc1nc2c(=O)n(C3OC(CO)C(O)C3O)cnc2o1` (stereo not drawn): the T/C (endpoint: mean survival time, dose: 100.0 mg/kg/injection, schedule: Q01DX005 (ip), vehicle: saline) is 100 % of control and the T/C (endpoint: mean survival time, dose: 200.0 mg/kg/injection, schedule: Q01DX005 (ip), vehicle: saline) was 101 % of control.
Take `CCCCCCNC(=O)Oc1c(C/C=C/CCC(=O)O)c(OC)c(C)c2c1C(=O)OC2`: the T/C by setting is: under setting [6], 108 % of control; under setting [7], 112 % of control.
Take `CC(=O)CC(=O)c1cccnc1`: the T/C is 103 % of control (endpoint: mean survival time, dose: 100.0 mg/kg/injection, schedule: Q04DX003 (ip), vehicle: saline with Tween-80); 97 % of control (endpoint: mean survival time, dose: 200.0 mg/kg/injection, schedule: Q04DX003 (ip), vehicle: saline with Tween-80); 101 % of control (endpoint: mean survival time, dose: 400.0 mg/kg/injection, schedule: Q04DX003 (ip), vehicle: saline with Tween-80).
As for `CCOC(=O)C(C#N)C(=N)C#N` (stereo not drawn), the T/C runs as follows: under setting [6], 93 % of control; under setting [7], 89 % of control; under setting [8], 110 % of control.
Turning to `COc1ccc(CCNC(=O)Cc2cc3c(cc2[N+](=O)[O-])OCO3)cc1OC`, the T/C was 95 % of control (endpoint: mean survival time, dose: 100.0 mg/kg/injection, schedule: Q01DX001 (ip), vehicle: saline); 94 % of control (endpoint: mean survival time, dose: 200.0 mg/kg/injection, schedule: Q01DX001 (ip), vehicle: saline); 95 % of control (endpoint: mean survival time, dose: 400.0 mg/kg/injection, schedule: Q01DX001 (ip), vehicle: saline).
With `CC1Cc2c3ccc4ccccc4c3cc3cccc1c23` (stereo not drawn) (tested in a mixture with another compound), the T/C reads like this: (endpoint: mean survival time, dose: 75.0 mg/kg/injection, schedule: Q04DX002 (ip), vehicle: saline with Tween-80) 105 % of control; (endpoint: mean survival time, dose: 150.0 mg/kg/injection, schedule: Q04DX002 (ip), vehicle: saline with Tween-80) 105 % of control; (endpoint: mean survival time, dose: 300.0 mg/kg/injection, schedule: Q04DX002 (ip), vehicle: saline with Tween-80) 97 % of control.
With `CC1C=CCC2C(=O)OC(=O)C12` (stereo not drawn), the T/C is, setting by setting: (endpoint: mean survival time, dose: 100.0 mg/kg/injection, schedule: Q04DX003 (ip), vehicle: saline) 94 % of control; (endpoint: mean survival time, dose: 200.0 mg/kg/injection, schedule: Q04DX003 (ip), vehicle: saline) 95 % of control; (endpoint: mean survival time, dose: 400.0 mg/kg/injection, schedule: Q04DX003 (ip), vehicle: saline) 101 % of control.
Take `C(=N\Nc1nc2ccccc2s1)/c1ccc(/C=N/Nc2nc3ccccc3s2)cc1`: the T/C under setting [5] is 92 % of control; the T/C (endpoint: mean survival time, dose: 200.0 mg/kg/injection, schedule: Q04DX003 (ip), vehicle: Klucel (hydroxypropylcellulose) (HPC)) was 92 % of control; the T/C (endpoint: mean survival time, dose: 400.0 mg/kg/injection, schedule: Q04DX003 (ip), vehicle: Klucel (hydroxypropylcellulose) (HPC)) was 94 % of control.
As to `Nc1cc2c(ncn2C2OC(CO)C(O)C2O)c(=O)n1N` (stereo not drawn), the T/C runs as follows: (endpoint: mean survival time, dose: 12.5 mg/kg/injection, schedule: Q01DX005 (ip), vehicle: distilled water + Tween-80) 96 % of control; (endpoint: mean survival time, dose: 25.0 mg/kg/injection, schedule: Q01DX005 (ip), vehicle: distilled water + Tween-80) 97 % of control; (endpoint: mean survival time, dose: 50.0 mg/kg/injection, schedule: Q01DX005 (ip), vehicle: distilled water + Tween-80) 105 % of control; (endpoint: mean survival time, dose: 100.0 mg/kg/injection, schedule: Q01DX005 (ip), vehicle: distilled water + Tween-80) 94 % of control; (endpoint: mean survival time, dose: 200.0 mg/kg/injection, schedule: Q01DX005 (ip), vehicle: distilled water + Tween-80) 94 % of control.
For `O=S(O)O.O=S(O)O.[Co].[NH2-].[NH2-].[NH2-].[NH2-]`, the T/C was 108 % of control under setting [6], 108 % of control under setting [7] and 119 % of control under setting [8].
On to `N#Cc1ccc(NN=O)nc1`, for which the T/C was 109 % of control (endpoint: median survival time, dose: 3.12 mg/kg/injection, schedule: Q01DX005 (ip), vehicle: water); 120 % of control (endpoint: median survival time, dose: 6.25 mg/kg/injection, schedule: Q01DX005 (ip), vehicle: water); 124 % of control (endpoint: median survival time, dose: 12.5 mg/kg/injection, schedule: Q01DX005 (ip), vehicle: water); 152 % of control and 158 % of control (endpoint: median survival time, dose: 15.0 mg/kg/injection, schedule: Q01DX005 (ip), vehicle: water); 164 % of control and 175 % of control (endpoint: median survival time, dose: 25.0 mg/kg/injection, schedule: Q01DX005 (ip), vehicle: water); 191 % of control (endpoint: median survival time, dose: 41.66 mg/kg/injection, schedule: Q01DX005 (ip), vehicle: water). Further, the T/C is 95 % of control (endpoint: median survival time, dose: 50.0 mg/kg/injection, schedule: Q01DX005 (ip), vehicle: water) and 118 % of control (endpoint: median survival time, dose: 69.4 mg/kg/injection, schedule: Q01DX005 (ip), vehicle: water).
Turning to `CCOC(=O)/C=C/SCCCC(=O)O`, the T/C by setting is: (endpoint: mean survival time, dose: 100.0 mg/kg/injection, schedule: Q01DX001 (ip), vehicle: saline with Tween-80) 100 % of control; (endpoint: mean survival time, dose: 200.0 mg/kg/injection, schedule: Q01DX001 (ip), vehicle: saline with Tween-80) 105 % of control; (endpoint: mean survival time, dose: 400.0 mg/kg/injection, schedule: Q01DX001 (ip), vehicle: saline with Tween-80) 95 % of control.
